Publication PMC5744864, “Indole and Benzimidazole Bichalcophenes: Synthesis, DNA Binding and Antiparasitic Activity” (European Journal of Medicinal Chemistry, 2018)
pIC50: −log10 of the molar value. Where a name gives a salt, the structure may show the parent alone. Read-outs that look alike come from different tables or passages of the source.

Assays:
[1] = test system: T. b. rhodesiense (STIB900) infected mice; assay: STIB900 acute mouse model for T. b. r. infections; format: in vivo; conditions: 4 × 5 mg/kg i.p.; for In vivo (cures), cured/infected mice: T. b. rhodesiense (STIB900) infected mice; for In vivo cure of infected mice (in words): T. b. rhodesiense infected mice
Experimental: The excellent in vitro activity and selectivity of the indole bichalcophenes diamidines (4a-d) encouraged us to test them in vivo in the rigorous T. b. r. STIB900 mouse model (Table 1) for the acute hemolymphatic stage of the African trypanosomiasis. The dosage applied was low with a daily intraperitoneal (i.p.) dose of 5 mg/kg compound for four consecutive days.
(§1) The in vitro viability assays were with the T. b. r. strain STIB 900 and the chloroquine resistant P. f. strain K1. The efficacy studies were with the STIB900 acute mouse model for T. b. r. infections. Dosage was 4 × 5 mg/kg i.p. performed as previously described in detail. Cytotoxicity was evaluated in L6 rat myoblast cells as previously reported in detail.

[2] = test system: T. b. r. (Trypanosoma brucei rhodesiense) STIB900; assay: In vitro viability assay, T. b. r. strain STIB900; format: cell-based; conditions: for pIC50: Trypanosoma brucei, read-out: T. b. r. IC50; for SI/T. b. r., Selectivity Index IC50 (L6)/IC50 (T b.r.): ratio L6 versus T. b. r. STIB900
Experimental: as §1

[3] = test system: P. f. (Plasmodium falciparum) strain K1; assay: In vitro viability assay, chloroquine resistant P. f. strain K1; format: cell-based; conditions: for pIC50: Plasmodium falciparum; for SI/P.f, Selectivity Index IC50 (L6)/IC50 (P.f.): ratio L6 versus P. f. K1
Experimental: as §1

Poly(dA).Poly(dT) = assay: Circular dichroism titration with Poly(dA).Poly(dT); format: binding; conditions: 20 μM Poly(dA).Poly(dT), 10 mM MES, 100 mM NaCl, 1 mM EDTA, 25 °C
Experimental: Fig. 2 Circular dichroism spectra of the titration of representative compounds, (4a, 4d, 8a, 8b, 8c) with a 20 μM Poly(dA).Poly(dT) sequence in the buffer (10 mM MES, 100 mM NaCl, 1 mM EDTA, at pH, 7.4) at 25 °C.
CD spectra were collected employing a Jasco J-810 spectrometer at 25 °C using different ratios of compound to DNA at 25 °C in MES 10 buffer (10 mM MES, 100 mM NaCl, I mM EDTA).First, a DNA solution in a 1-cm quartz cuvette was scanned over the desired wavelength range. Tested compounds at increasing ratios, were titrated into the same cuvette and the complexes rescanned under the same conditions.

poly(dA-dT)n = assay: Thermal melting (ΔTm) of poly(dA-dT) DNA; format: binding; conditions: ratio 0.3 mol compound per mole of DNA; CAC 10 buffer pH 7.0
Experimental: Thermal melting experiments were performed with a Cary 300 spectrophotometer. Cuvettes were mounted in a thermal block where the solution temperatures were mesaured with a thermistor in the reference cuvette. Temperatures were maintained under computer control and increased at 0.5 °C/min. The experiments were performed in 1 cm path length quartz cuvettes in CAC 10 buffer (cacodylic acid 10 mM, EDTA 1 mM, NaCl 100 mM with NaOH added to give pH = 7.0). Poly (dA-dT) DNA concentrations were determined by measuring its absorbance at 260 nm. A ratio of 0.3 mol compound per mole of DNA was used for the complex and DNA alone was used as control. ΔTm values were determined from the peak of first derivative curves (dA/dT).

[4] = Cytotoxicity in L6 rat myoblast cells; format: cell-based; conditions: cultured L6 rat myoblast cells; read-out: Cytotox. IC50 (L6)
Experimental: as §1

[5] = test system: T. b. rhodesiense (STIB900) infected mice; set-up: method as in PMID 23959303; conditions: 5 mg/kg i.p. daily for four consecutive days; cited from earlier work
[6] = strain STIB900, average of duplicate determinations

Row | Compound | melting point [°C] | SI/T. b. r., Selectivity Index IC50 (L6)/IC50 (T b.r.) [2] | Induced CD signal on binding (minor groove binding) (Poly(dA).Poly(dT)) | ΔTm, thermal melting increase of poly(dA-dT)n (poly(dA-dT)n) | pIC50 [4] | further results
1 | N=C(N)c1ccc2cc(-c3ccc(-c4ccc(C(=N)N)o4)o3)[nH]c2c1 (as salt: hydrochloride) [Compound 4a, 2-(5′-Amidino-2,2′-bifuran-5-yl)-1H-indole-6-amidine hydrochloride salt] | > 300 | – | – | – | – | –
2 | N=C(N)c1ccc2cc(-c3ccc(-c4ccc(C(=N)N)s4)o3)[nH]c2c1 (as salt: hydrochloride) [Compound 4b, 2-(5-(5-Amidinothiophen-2-yl)furan-2-yl)-1H-indole-6-amidine hydrochloride salt] | > 300 | – | – | – | – | –
3 | N=C(N)c1ccc2cc(-c3ccc(-c4ccc(C(=N)N)o4)s3)[nH]c2c1 (as salt: hydrochloride) [Compound 4c, 2-(5-(5-Amidinofuran-2-yl)thiophen-2-yl)-1H-indole-6-amidine hydrochloride salt] | > 300 | – | – | – | – | –
4 | N=C(N)c1ccc2cc(-c3ccc(-c4ccc(C(=N)N)s4)s3)[nH]c2c1 (as salt: hydrochloride) [Compound 4d, 2-(5′-Amidino-2,2′-bithiophen-5-yl)-1H-indole-6-amidine hydrochloride salt] | > 300 | – | – | – | – | –
5 | N=C(N)c1ccc2nc(-c3ccc(-c4ccc(C(=N)N)o4)o3)[nH]c2c1 (as salt: hydrochloride) [Compound 8a, 2-(5′-Amidino-2,2′-bifuran-5-yl)-1H-benzimidazole-5(6)-amidine hydrochloride salt] | > 300 | – | – | – | – | –
6 | N=C(N)c1ccc2nc(-c3ccc(-c4ccc(C(=N)N)s4)o3)[nH]c2c1 (as salt: hydrochloride) [Compound 8b, 2-(5-(5-Amidinothiophen-2-yl)furan-2-yl)-1H-benzimidazole-5(6)-amidine hydrochloride salt] | > 300 | – | – | – | – | –
7 | N=C(N)c1ccc2nc(-c3ccc(-c4ccc(C(=N)N)s4)s3)[nH]c2c1 (as salt: hydrochloride) [Compound 8c, 2-(5′-Amidino-2,2′-bithiophen-5-yl)-1H-benzimidazole-5(6)-amidine hydrochloride salt] | > 300 | – | – | – | – | –
8 | N=C(N)c1ccc2cc(-c3ccc(-c4ccc(C(=N)N)o4)o3)[nH]c2c1 [Compound 4a, 2-(5′-Amidino-2,2′-bifuran-5-yl)-1H-indole-6-amidine hydrochloride salt] | – | 1100 | very strong induced CD signals | 28 ^oC | 4.78 | In vivo (cures), cured/infected mice [1]: 0/4; pIC50 [2]: 7.82; pIC50 ([3]; K1, read-out: P.f. IC50): 8.54
9 | N=C(N)c1ccc2cc(-c3ccc(-c4ccc(C(=N)N)s4)o3)[nH]c2c1 [Compound 4b, 2-(5-(5-Amidinothiophen-2-yl)furan-2-yl)-1H-indole-6-amidine hydrochloride salt] | – | 1046 | – | >30 ^oC | 4.80 | In vivo (cures), cured/infected mice [1]: 0/4; pIC50 [2]: 7.82; pIC50 ([3]; K1, read-out: P.f. IC50): 8.14; SI/P.f, Selectivity Index IC50 (L6)/IC50 (P.f.) [3]: 2150
10 | N=C(N)c1ccc2cc(-c3ccc(-c4ccc(C(=N)N)o4)s3)[nH]c2c1 [Compound 4c, 2-(5-(5-Amidinofuran-2-yl)thiophen-2-yl)-1H-indole-6-amidine hydrochloride salt] | – | 4400 | – | 28 ^oC | 4.75 | Sterile cures in mice infected with T. b. r. ([1]; STIB900 mouse model): 100%; In vivo (cures), cured/infected mice [1]: 4/4; In vivo cure of infected mice (in words) [1]: curing all T. b. r. infected mice; pIC50 [2]: 8.40; pIC50 ([3]; K1, read-out: P.f. IC50): 8.17; SI/P.f, Selectivity Index IC50 (L6)/IC50 (P.f.) [3]: 2588
11 | N=C(N)c1ccc2cc(-c3ccc(-c4ccc(C(=N)N)s4)s3)[nH]c2c1 [Compound 4d, 2-(5′-Amidino-2,2′-bithiophen-5-yl)-1H-indole-6-amidine hydrochloride salt] | – | 5800 | very strong induced CD signals | >30 ^oC | 4.94 | In vivo (cures), cured/infected mice [1]: 0/4; pIC50 [2]: 8.70; pIC50 ([3]; K1, read-out: P.f. IC50): 8.17; SI/P.f, Selectivity Index IC50 (L6)/IC50 (P.f.) [3]: 1705
12 | N#Cc1ccc2nc(-c3ccc(-c4ccc(C#N)s4)s3)[nH]c2c1 [Compound 7c, 2-(5′-Cyano-2,2′-bithiophen-5-yl)-1H-benzimidazole-5(6)-carbonitrile] | > 300 | – | – | – | – | In vivo cure of infected mice (in words) [1]: cured all mice
13 | N=C(N)c1ccc2nc(-c3ccc(-c4ccc(C(=N)N)o4)o3)[nH]c2c1 [Compound 8a, 2-(5′-Amidino-2,2′-bifuran-5-yl)-1H-benzimidazole-5(6)-amidine hydrochloride salt] | – | 409 | very strong induced CD signals | 29 ^oC | 4.38 | pIC50 [2, 6]: 6.99; pIC50 ([3]; chloroquine resistant strain K1, average of duplicate determinations, read-out: P.f. IC50): 7.04; SI/P.f, Selectivity Index IC50 (L6)/IC50 (P.f.) [3]: 454
14 | N=C(N)c1ccc2nc(-c3ccc(-c4ccc(C(=N)N)s4)o3)[nH]c2c1 [Compound 8b, 2-(5-(5-Amidinothiophen-2-yl)furan-2-yl)-1H-benzimidazole-5(6)-amidine hydrochloride salt] | – | 234 | very strong induced CD signals | 27 ^oC | 4.82 | pIC50 [2, 6]: 7.19
15 | N=C(N)c1ccc2nc(-c3ccc(-c4ccc(C(=N)N)s4)s3)[nH]c2c1 [Compound 8c, 2-(5′-Amidino-2,2′-bithiophen-5-yl)-1H-benzimidazole-5(6)-amidine hydrochloride salt] | – | 1048 | very strong induced CD signals | >30 ^oC | 4.58 | pIC50 [2, 6]: 7.60
16 | N=C(N)c1ccc(OCCCCCOc2ccc(C(=N)N)cc2)cc1 [pentamidine, Pentamidine] | – | – | – | – | – | In vivo (cures), cured/infected mice [5]: 1/4
